For this data set, the system named is rodent carcinogenicity bioassays, tumor incidence. As to the kind of experiment: CCRIS carcinogenicity studies. The note with it: Dose: 0, Dose: 0. In short, it runs like this: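 Archive of carcinogenicity, mutagenicity, tumor promotion and tumor inhibition results drawn from journals, NCI reports and other sources, expert-reviewed; covers 1985-2011 and is no longer updated.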

The source made the active and inactive calls. How the calls were made is not given here.

Regarding `CN1C(=O)C(O)N=C(c2ccccc2)c2cc(Cl)ccc21` (configuration not stated), the carcinogen call was “inactive; negative” (Species: MOUSE, Strain/Sex: CD-1/FEMALE, Route: ORAL, 10, 80, 160 MG/KG/D IN DIET FOR 18 MO (STUDY DURATION: 18 MO), 10, 80, 160 MG/KG/D IN DIET FOR 18 MO (STUDY DURATION: 18 MO)); “inactive; negative” (Species: MOUSE, Strain/Sex: CD-1/MALE, Route: ORAL, 10, 80, 160 MG/KG/D IN DIET FOR 18 MO (STUDY DURATION: 18 MO), 10, 80, 160 MG/KG/D IN DIET FOR 18 MO (STUDY DURATION: 18 MO)); “inactive; negative” (Species: RAT, Strain/Sex: STRAIN-CD/FEMALE, Route: ORAL, 10, 40, 160 MG/KG/D IN DIET FOR 2 YR (STUDY DURATION: 2 YR), 10, 40, 160 MG/KG/D IN DIET FOR 2 YR (STUDY DURATION: 2 YR)); “inactive; negative” (Species: RAT, Strain/Sex: STRAIN-CD/MALE, Route: ORAL, 10, 40, 160 MG/KG/D IN DIET FOR 2 YR (STUDY DURATION: 2 YR), 10, 40, 160 MG/KG/D IN DIET FOR 2 YR (STUDY DURATION: 2 YR)).

On to `O=C1C=CC(=O)C(c2ccccc2)=C1`, for which the carcinogen call is “inactive; negative” (Species: MOUSE, Strain/Sex: CD-1/FEMALE, Route: DERMAL, 1 MG IN DMSO 5/D WK FOR 40 WK (STUDY DURATION: 40 WK)) and “inactive; negative” (Species: RAT, Strain/Sex: F344/FEMALE, Route: INTRAVESICULAR, 1% IN 0.2 ML SALINE 2/WK FOR 5 WK (STUDY DURATION: 36 WK)).

Turning to `Nc1ccn([C@@H]2O[C@H](CO)[C@@H](O)C2O)c(=O)n1` (some centres not stated), the carcinogen call (Species: RAT, Strain/Sex: SPRAGUE-DAWLEY/FEMALE, Route: INTRAPERITONEAL, 5, 25 MG/KG IN PHYSIOLOGICAL SALINE 5/WK FOR 72 WK (STUDY DURATION: LIFETIME), 5, 25 MG/KG IN PHYSIOLOGICAL SALINE 5/WK FOR 72 WK (STUDY DURATION: LIFETIME)) was “inactive; negative”; the carcinogen call (Species: RAT, Strain/Sex: SPRAGUE-DAWLEY/FEMALE, Route: INTRAPERITONEAL, 500, 1500 MG/KG IN PHYSIOLOGICAL SALINE ON D 1, 3, 5 WITHIN 3 MO, CYCLE REPEATED 6 TIMES (STUDY DURATION: LIFETIME), 500, 1500 MG/KG IN PHYSIOLOGICAL SALINE ON D 1, 3, 5 WITHIN 3 MO, CYCLE REPEATED 6 TIMES (STUDY DURATION: LIFETIME)) was “inactive; negative”; the carcinogen call (Species: RAT, Strain/Sex: SPRAGUE-DAWLEY/MALE, Route: INTRAPERITONEAL, 5, 25 MG/KG IN PHYSIOLOGICAL SALINE 5/WK FOR 72 WK (STUDY DURATION: LIFETIME), 5, 25 MG/KG IN PHYSIOLOGICAL SALINE 5/WK FOR 72 WK (STUDY DURATION: LIFETIME)) was “inactive; negative”; the carcinogen call (Species: RAT, Strain/Sex: SPRAGUE-DAWLEY/MALE, Route: INTRAPERITONEAL, 500, 1500 MG/KG IN PHYSIOLOGICAL SALINE ON D 1, 3, 5 WITHIN 3 MO, CYCLE REPEATED 6 TIMES (STUDY DURATION: LIFETIME), 500, 1500 MG/KG IN PHYSIOLOGICAL SALINE ON D 1, 3, 5 WITHIN 3 MO, CYCLE REPEATED 6 TIMES (STUDY DURATION: LIFETIME)) was “inactive; negative”.

With `Cc1ccc2cc3c(ccc4ccccc43)c3c2c1CC3O` (configuration not stated), the carcinogen call (Species: RAT, Strain/Sex: SPRAGUE-DAWLEY/FEMALE, Route: SUBCUTANEOUS, 0.2 UMOL IN 0.1 ML SESAME OIL:DMSO (9:1) 3/WK FOR 20 DOSES (STUDY DURATION: 52 WK), Tumor Site: Type of Lesion: INJECTION SITE: SARCOMA) is “active; positive”.

Turning to `O=[N+]([O-])c1cc(N(CCO)CCO)ccc1NCCO`, the carcinogen call (Species: MOUSE, Strain/Sex: B6C3F1/FEMALE, Route: ORAL, 10000, 20000 PPM IN DIET FOR 104 WK, 10000, 20000 PPM IN DIET FOR 104 WK) is “inactive; negative”; the carcinogen call (Species: MOUSE, Strain/Sex: B6C3F1/MALE, Route: ORAL, 5000, 10000 PPM IN DIET FOR 104 WK, 5000, 10000 PPM IN DIET FOR 104 WK) is “inactive; negative”; the carcinogen call (Species: RAT, Strain/Sex: F344/FEMALE, Route: ORAL, 10000, 20000 PPM IN DIET FOR 103 WK, 10000, 20000 PPM IN DIET FOR 103 WK) is “inactive; negative”; the carcinogen call (Species: RAT, Strain/Sex: F344/MALE, Route: ORAL, 5000, 10000 PPM IN DIET FOR 103 WK, 5000, 10000 PPM IN DIET FOR 103 WK) is “inactive; negative”.

Consider `COC(=O)c1ccc(CNS(C)(=O)=O)cc1S(=O)(=O)NC(=O)Nc1nc(OC)cc(OC)n1`, for which the carcinogen call runs as follows: (Species: Mouse, Strain/Sex: CD-1/Female (60/Group), Route: Oral, 13.9, 129.8, 1356 mg/kg/day of 94.6-95.3% mesosulfuron-methyl in diet for 18 mo, study duration 18 mo, 13.9, 129.8, 1356 mg/kg/day of 94.6-95.3% mesosulfuron-methyl in diet for 18 mo, study duration 18 mo) “inactive; negative”; (Species: Mouse, Strain/Sex: CD-1/Male (60/Group), Route: Oral, 10.6, 102.8, 1069 mg/kg/day of 94.6-95.3% mesosulfuron-methyl in diet for 18 mo, study duration 18 mo, 10.6, 102.8, 1069 mg/kg/day of 94.6-95.3% mesosulfuron-methyl in diet for 18 mo, study duration 18 mo) “inactive; negative”; (Species: Rat, Strain/Sex: Hoe:WISK(SPF71)/Female (50/Group), Route: Oral, 9.39, 94.7, 952.3 mg/kg/day of 94.6% mesosulfuron-methyl in diet for 24 mo, study duration 24 mo, 9.39, 94.7, 952.3 mg/kg/day of 94.6% mesosulfuron-methyl in diet for 24 mo, study duration 24 mo) “inactive; negative”; (Species: Rat, Strain/Sex: Hoe:WISK(SPF71)/Male (50/Group), Route: Oral, 7.46, 73.8, 764.0 mg/kg/day of 94.6% mesosulfuron-methyl in diet for 24 mo, study duration 24 mo, 7.46, 73.8, 764.0 mg/kg/day of 94.6% mesosulfuron-methyl in diet for 24 mo, study duration 24 mo) “inactive; negative”.

Take `COc1ccc2c3c(cccc13)OC([N+](=O)[O-])=C2`: the carcinogen call (Species: RAT, Strain/Sex: WISTAR/MALE, Route: SUBCUTANEOUS, 0.5 MG IN DMSO 1/WK FOR DURATION OF STUDY (TOTAL DOSE: 0; 10.23 MG) (STUDY DURATION: 156 D), 0.5 MG IN DMSO 1/WK FOR DURATION OF STUDY (TOTAL DOSE: 0; 10.23 MG) (STUDY DURATION: 156 D), Tumor Site: Type of Lesion: INJECTION SITE: FIBROSARCOMA) is “active; positive”.

For the compound `O=P(OCCCl)(OCCCl)OCCCl`, the carcinogen call is “equivocal” (Species: MOUSE, Strain/Sex: B6C3F1/FEMALE, Route: GAVAGE, 175, 350 MG/KG IN CORN OIL 5 D/WK FOR 103 (STUDY DURATION: 104 WK), 175, 350 MG/KG IN CORN OIL 5 D/WK FOR 103 (STUDY DURATION: 104 WK), Tumor Site: Type of Lesion: HARDERIAN GLAND: ADENOMA OR CARCINOMA); “equivocal” (Species: MOUSE, Strain/Sex: B6C3F1/MALE, Route: GAVAGE, 175, 350 MG/KG IN CORN OIL 5 D/WK FOR 103 (STUDY DURATION: 104 WK), 175, 350 MG/KG IN CORN OIL 5 D/WK FOR 103 (STUDY DURATION: 104 WK), Tumor Site: Type of Lesion: KIDNEY (RENAL TUBULE): ADENOMA, CARCINOMA); “active; positive” (Species: MOUSE, Strain/Sex: DDY/FEMALE, Route: ORAL, 0.012, 0.06, 0.3, 1.5% IN DIET FOR 18 MO (STUDY DURATION: 18 MO), 0.012, 0.06, 0.3, 1.5% IN DIET FOR 18 MO (STUDY DURATION: 18 MO), Tumor Site: Type of Lesion: HEMATOPOIETIC SYSTEM: LEUKEMIA, FORESTOMACH: PAPILLOMA, CARCINOMA); “active; positive” (Species: MOUSE, Strain/Sex: DDY/MALE, Route: ORAL, 0.012, 0.06, 0.3, 1.5% IN DIET FOR 18 MO (STUDY DURATION: 18 MO), 0.012, 0.06, 0.3, 1.5% IN DIET FOR 18 MO (STUDY DURATION: 18 MO), Tumor Site: Type of Lesion: LIVER: HEPATOCELLULAR ADENOMA, HEPATOCELLULAR CARCINOMA, KIDNEY: RENAL CELL ADENOMA, RENAL CELL CARCINOMA); “inactive; negative” (Species: MOUSE, Strain/Sex: SLC:DDY/FEMALE, Route: DERMAL, 5, 50% IN ETHANOL 2/WK FOR 79 WK (STUDY DURATION: 18 MO), 5, 50% IN ETHANOL 2/WK FOR 79 WK (STUDY DURATION: 18 MO)); “active; positive” (Species: RAT, Strain/Sex: F344/FEMALE, Route: GAVAGE, 44, 88 MG/KG IN CORN OIL 5 D/WK FOR 103 (STUDY DURATION: 104 WK), 44, 88 MG/KG IN CORN OIL 5 D/WK FOR 103 (STUDY DURATION: 104 WK), Tumor Site: Type of Lesion: KIDNEY (RENAL TUBULE): ADENOMA). The carcinogen call (Species: RAT, Strain/Sex: F344/MALE, Route: GAVAGE, 44, 88 MG/KG IN CORN OIL 5 D/WK FOR 103 (STUDY DURATION: 104 WK), 44, 88 MG/KG IN CORN OIL 5 D/WK FOR 103 (STUDY DURATION: 104 WK), Tumor Site: Type of Lesion: KIDNEY (RENAL TUBULE): ADENOMA OR CARCINOMA, HEMATOPOIETIC SYSTEM: LEUKEMIA (MONONUCLEAR)) was “active; positive”.
